Assays:
Assay in all cases: Combination study, ATPLite 72 h, dose matrix (Synergy Score, CI50)
[1] = system: TMD8; settings: for CI50 growth inhibition / CI50 inhibition / Synergy Score growth inhibition / Synergy Score inhibition: TMD8
[2] = system: Farage; settings: combination with Compound 1
[3] = system: HBL-1
[4] = system: OCI-Ly3
[5] = system: U-2932
[6] = system: HH; assay type: cell-based; settings: combination with Compound 1
Experimental: The method is described as follows.
Additive effect is CI=1.0. […] Antagonistic effect is CI>1.0.
The Synergy Score is calculated as: […]

[7] = system: OCI-Ly7; settings: combination with Compound 1, 72 h
[8] = system: SU-DHL-4-epst; settings: combination with Compound 1, 72 h
Experimental: (§1) Cells are thawed from a liquid nitrogen preserved state. Once cells have been expanded and divide at their expected doubling times, screening begins. Cells are seeded in growth media in either black 1536-well or 384-well tissue culture treated plates. Cells are then equilibrated in assay plates via centrifugation and placed in incubators attached to the Dosing Modules at 37° C. for 24 hours before treatment. […] These Tzero (To) plates are read using ultra-sensitive luminescence on Envision plate readers (Perkin Elmer). Treated assay plates are incubated with compound for 72 hours. After 72 hours, plates are developed for endpoint analysis using ATPLite. All data points are collected via automated processes, quality controlled and analyzed using Zalicus software.
(§2) The measure of effect in the experiment can be the inhibition of cellular response relative to the untreated level (vehicle alone). […] The inhibition ranges from 0% at the untreated level to 100% when T=0. Inhibition levels are negative for agents that actually increase levels.
(§3) Growth Inhibition (GI) is used as a measure of cell viability. […] A GI reading of 100% represents complete growth inhibition—T72 compound-treated and T0 vehicle signals are matched. […] A GI reading of 200% represents complete death of all cells in the culture well. Compounds reaching an activity plateau of GI 200% are considered cytotoxic. GI is calculated by applying the following test and equation:
(§4) Combination analysis data were collected in a 6×6 dose matrix. Synergy is calculated by comparing a combination's response to those of its single compound, against the drug-with-itself dose-additive reference model. Deviations from dose additivity may be assessed visually on an isobologram or numerically with a Combination Index (CI). […] Additive effect is CI=1.0. […] Antagonistic effect is CI>1.0.
(§5) To measure combination effects in excess of Loewe additivity, a scalar measure to characterize the strength of synergistic interaction termed the Synergy Score is devised. The Synergy Score is calculated as:
(§6) The fractional inhibition for each component agent and combination point in the matrix is calculated relative to the median of all vehicle-treated control wells. The Synergy Score equation integrates the experimentally-observed activity volume at each point in the matrix in excess of a model surface numerically derived from the activity of the component agents using the Loewe model for additivity. Additional terms in the Synergy Score equation (above) are used to normalize for various dilution factors used for individual agents and to allow for comparison of synergy scores across an entire experiment. The inclusion of positive inhibition gating or an Idata multiplier removes noise near the zero effect level, and biases results for synergistic interactions at that occur at high activity levels.
(§7) Loewe Volume (Loewe Vol) is used to assess the overall magnitude of the combination interaction in excess of the Loewe additivity model. Loewe Volume is particularly useful when distinguishing synergistic increases in a phenotypic activity (positive Loewe Volume) versus synergistic antagonisms (negative Loewe Volume). […] This model defines additivity as a non-synergistic combination interaction where the combination dose matrix surface should be indistinguishable from either drug crossed with itself. The calculation for Loewe additivity is:

[9] = system: DOHH-2; settings: combination with Compound 1, 72 h
[10] = system: SU-DHL-10-epst; settings: combination with Compound 1, 72 h
Experimental: as §1, §2, §3, §4, §5, §6, §7

[11] = system: RL; settings: combination with Compound 1, 72 h
[12] = system: KARPAS-422; settings: combination with Compound 1, 72 h
[13] = system: WSU-NHL; settings: combination with Compound 1, 72 h
[14] = system: KARPAS-299; settings: combination with Compound 1
[15] = system: GRANTA-519; settings: combination with Compound 1
[16] = system: Jeko-1; settings: combination with Compound 1
[17] = system: Mino; settings: combination with Compound 1
[18] = system: NCI-H929; settings: combination with Compound 1
Experimental: as §1
where T is treated cell count and V is untreated (vehicle) cell count (at 72 hours). I ranges from 0% (when T=V) to 100% (when T=0). […] The measure of effect in the experiment can be the inhibition of cellular response relative to the untreated level (vehicle alone). […] The inhibition ranges from 0% at the untreated level to 100% when T=0. Inhibition levels are negative for agents that actually increase levels. Other effect measures, such as an activity ratio r=T/V may be more appropriate for some assays. When activity ratios (e.g, fold increase over stimulated control) are being used, the effect can be measured using an induction 1=ln(T/V). With this definition, all effect expressions are the same as for inhibition.
as §3, §4, §5, §6
Loewe Volume (Loewe Vol) is used to assess the overall magnitude of the combination interaction in excess of the Loewe additivity model. Loewe Volume is particularly useful when distinguishing synergistic increases in a phenotypic activity (positive Loewe Volume) versus synergistic antagonisms (negative Loewe Volume). […] This model defines additivity as a non-synergistic combination interaction where the combination dose matrix surface should be indistinguishable from either drug crossed with itself.

[19] = system: OMP-2; settings: combination with Compound 1; OPM-2
[20] = system: RPMI-8226; settings: combination with Compound 1
[21] = combination with CAL-101, Example 2
[22] = combination with Cmpd 1, Example 2
[23] = combination with CAL-101, OCT-Ly3, Example 2
[24] = combination with Cmpd 1, OCT-Ly3, Example 2
[25] = combination with Compound 1, 72 h
[26] = combination with Compound 1, OCI-Ly3, 72 h

## COc1ccc(-c2ccc3c(N4CCOC[C@@H]4C)nc(N4CCOC[C@@H]4C)nc3n2)cc1CO [AZD8055, (5-{2,4-bis[(3S)-3-methylmorpholin-4-yl]pyrido[2,3-d]pyrimidin-7-yl}-2-methoxyphenyl)methanol]
[1]; combination with Compound 1, TMD8 DLBCL cell line, FIG. 1-3
  effect of the combination (isobologram): synergistic effect
[2]; Farage DLBCL cell line, FIG. 4-5
  effect of the combination (isobologram): synergistic effect

## C=CC(=O)N1CCC[C@@H](n2nc(-c3ccc(Oc4ccccc4)cc3)c3c(N)ncnc32)C1 [PCI-32765]
[3]; [21]
  CI50 growth inhibition: S (S=0.01 to <0.5)
  Synergy Score growth inhibition: A2 (A2=1 to <3)
  Synergy Score inhibition: A1 (A1=0.0001 to <1)
[3]; [22]
  CI50 growth inhibition: S (S=0.01 to <0.5)
  Synergy Score growth inhibition: A2 (A2=1 to <3)
  Synergy Score inhibition: A1 (A1=0.0001 to <1)
[4]; [23]
  Synergy Score growth inhibition: A1 (A1=0.0001 to <1)
  Synergy Score inhibition: A1 (A1=0.0001 to <1)
[4]; [24]
  CI50 growth inhibition: S (S=0.01 to <0.5)
  Synergy Score growth inhibition: A1 (A1=0.0001 to <1)
  Synergy Score inhibition: A1 (A1=0.0001 to <1)
[5]; [21]
  CI50 growth inhibition: T (T=0.5 to <0.7)
  CI50 inhibition: U (U=0.7 to <1)
  Synergy Score growth inhibition: A2 (A2=1 to <3)
  Synergy Score inhibition: A2 (A2=1 to <3)
[5]; [22]
  CI50 growth inhibition: U (U=0.7 to <1)
  CI50 inhibition: U (U=0.7 to <1)
  Synergy Score growth inhibition: A2 (A2=1 to <3)
  Synergy Score inhibition: A2 (A2=1 to <3)
[1]; [21]
  CI50 growth inhibition: S (S=0.01 to <0.5)
  CI50 inhibition: S (S=0.01 to <0.5)
  Synergy Score growth inhibition: A3 (A3=>3)
  Synergy Score inhibition: A3 (A3=>3)
[1]; [22]
  CI50 growth inhibition: U (U=0.7 to <1)
  CI50 inhibition: T (T=0.5 to <0.7)
  Synergy Score growth inhibition: A3 (A3=>3)
  Synergy Score inhibition: A3 (A3=>3)

## CC(=O)c1c(C)c2cnc(Nc3ccc(N4CCNCC4)cn3)nc2n(C2CCCC2)c1=O [PD-0332991]
[3]; [21]
  Synergy Score growth inhibition: A1 (A1=0.0001 to <1)
  Synergy Score inhibition: A1 (A1=0.0001 to <1)
[3]; [22]
  Synergy Score growth inhibition: A1 (A1=0.0001 to <1)
  Synergy Score inhibition: A1 (A1=0.0001 to <1)
[4]; [23]
  CI50 growth inhibition: S (S=0.01 to <0.5)
  CI50 inhibition: S (S=0.01 to <0.5)
  Synergy Score growth inhibition: A3 (A3=>3)
  Synergy Score inhibition: A2 (A2=1 to <3)
[4]; [24]
  CI50 growth inhibition: T (T=0.5 to <0.7)
  CI50 inhibition: U (U=0.7 to <1)
  Synergy Score growth inhibition: A2 (A2=1 to <3)
  Synergy Score inhibition: A1 (A1=0.0001 to <1)
[5]; [21]
  Synergy Score growth inhibition: A1 (A1=0.0001 to <1)
  Synergy Score inhibition: A1 (A1=0.0001 to <1)
[5]; [22]
  Synergy Score growth inhibition: A1 (A1=0.0001 to <1)
  Synergy Score inhibition: A1 (A1=0.0001 to <1)
[1]; [21]
  CI50 growth inhibition: S (S=0.01 to <0.5)
  CI50 inhibition: S (S=0.01 to <0.5)
  Synergy Score growth inhibition: A3 (A3=>3)
  Synergy Score inhibition: A2 (A2=1 to <3)
[1]; [22]
  CI50 growth inhibition: S (S=0.01 to <0.5)
  CI50 inhibition: S (S=0.01 to <0.5)
  Synergy Score growth inhibition: A3 (A3=>3)
  Synergy Score inhibition: A2 (A2=1 to <3)

## O=C(Nc1ccc2[nH]nc(-c3ccncc3)c2c1)[C@@H]1CCN(CC(=O)N2CCN(c3ccc(-c4ncccn4)cc3)CC2)C1 [SCH772984, (R)-1-(2-oxo-2-(4-(4-(pyrimidin-2-yl)phenyl)piperazin-1-yl)ethyl)-N-(3-(pyridin-4-yl)-1H-indazol-5-yl)pyrrolidine-3-carboxamide]
[6]
  CI50 growth inhibition: T (T=0.5 to <0.7)
  CI50 inhibition: S (S=0.01 to <0.5)
  Synergy Score growth inhibition: A1 (A1=0.0001 to <1)
  Synergy Score inhibition: A1 (A1=0.0001 to <1)
[3]; [25]
  CI50 growth inhibition: T (T=0.5 to <0.7)
  Synergy Score growth inhibition: A1 (A1=0.0001 to <1)
  Synergy Score inhibition: A1 (A1=0.0001 to <1)
[4]; [26]
  CI50 growth inhibition: W (W=≥1)
  Synergy Score growth inhibition: A1 (A1=0.0001 to <1)
  Synergy Score inhibition: A1 (A1=0.0001 to <1)
[5]; [25]
  CI50 growth inhibition: W (W=≥1)
  Synergy Score growth inhibition: A1 (A1=0.0001 to <1)
  Synergy Score inhibition: A1 (A1=0.0001 to <1)
[1]; [25]
  CI50 growth inhibition: T (T=0.5 to <0.7)
  CI50 inhibition: U (U=0.7 to <1)
  Synergy Score growth inhibition: A1 (A1=0.0001 to <1)
  Synergy Score inhibition: A1 (A1=0.0001 to <1)
[7]
  Synergy Score growth inhibition: A1 (A1=0.0001 to <1)
  Synergy Score inhibition: A1 (A1=0.0001 to <1)
[8]
  CI50 growth inhibition: W (W=≥1)
  Synergy Score growth inhibition: A1 (A1=0.0001 to <1)
  Synergy Score inhibition: A1 (A1=0.0001 to <1)
[9]
  CI50 growth inhibition: W (W=≥1)
  CI50 inhibition: W (W=≥1)
  Synergy Score growth inhibition: A1 (A1=0.0001 to <1)
  Synergy Score inhibition: A1 (A1=0.0001 to <1)
[2]; Farage, 72 h
  CI50 growth inhibition: T (T=0.5 to <0.7)
  CI50 inhibition: W (W=≥1)
  Synergy Score growth inhibition: A1 (A1=0.0001 to <1)
  Synergy Score inhibition: A1 (A1=0.0001 to <1)
[10]
  CI50 growth inhibition: T (T=0.5 to <0.7)
  CI50 inhibition: W (W=≥1)
  Synergy Score growth inhibition: A2 (A2=1 to <3)
  Synergy Score inhibition: A2 (A2=1 to <3)
[11]
  Synergy Score growth inhibition: A1 (A1=0.0001 to <1)
  Synergy Score inhibition: A1 (A1=0.0001 to <1)
[12]
  CI50 growth inhibition: T (T=0.5 to <0.7)
  CI50 inhibition: W (W=≥1)
  Synergy Score growth inhibition: A1 (A1=0.0001 to <1)
  Synergy Score inhibition: A1 (A1=0.0001 to <1)
[13]
  CI50 growth inhibition: U (U=0.7 to <1)
  CI50 inhibition: U (U=0.7 to <1)
  Synergy Score growth inhibition: A1 (A1=0.0001 to <1)
  Synergy Score inhibition: A1 (A1=0.0001 to <1)
[14]
  Synergy Score growth inhibition: A1 (A1=0.0001 to <1)
  Synergy Score inhibition: A1 (A1=0.0001 to <1)
[15]
  Synergy Score growth inhibition: A1 (A1=0.0001 to <1)
  Synergy Score inhibition: A1 (A1=0.0001 to <1)
[16]
  CI50 growth inhibition: W (W=≥1)
  Synergy Score growth inhibition: A1 (A1=0.0001 to <1)
  Synergy Score inhibition: A1 (A1=0.0001 to <1)
[17]
  CI50 growth inhibition: W (W=≥1)
  Synergy Score growth inhibition: A1 (A1=0.0001 to <1)
  Synergy Score inhibition: A1 (A1=0.0001 to <1)
[18]
  CI50 growth inhibition: W (W=≥1)
  CI50 inhibition: W (W=≥1)
  Synergy Score growth inhibition: A1 (A1=0.0001 to <1)
  Synergy Score inhibition: A1 (A1=0.0001 to <1)
[19]
  Synergy Score growth inhibition: A1 (A1=0.0001 to <1)
  Synergy Score inhibition: A1 (A1=0.0001 to <1)
[20]
  Synergy Score growth inhibition: A1 (A1=0.0001 to <1)
  Synergy Score inhibition: A1 (A1=0.0001 to <1)

— patent publication US20240325398A1, “COMBINATION THERAPIES” (Infinity Pharmaceuticals, Inc., priority 2014, published 2024)
